The values below come from patent US7902361B2, “Pyrimidin-4-yl-3, 4-thione compounds and their use in therapy” (Cyclacel Limited, priority 2003, dated 2011).

What all share (format): biochemical
The target in one test is CDK7/cyclin H (Homo sapiens, UniProt P50613). The test can be described thus: Kinase assay CDK7/cyclin H. Conditions: Ki calculated (Cheng-Prusoff) from experimentally determined IC50 and Km,ATP; read-out: Kinase Inhibition Ki CDK7 - cyclin H. On the procedure:
(§1) The compounds from the examples above were investigated for their ability to inhibit the enzymatic activity of various protein kinases. This was achieved by measurement of incorporation of radioactive phosphate from ATP into appropriate polypeptide substrates. Recombinant protein kinases and kinase complexes were produced or obtained commercially. Assays were performed using 96-well plates and appropriate assay buffers (typically 25 mM β-glycerophosphate, 20 mM MOPS, 5 mM EGTA, 1 mM DTT, 1 mM […], pH 7.4), into which were added 2-4 μg of active enzyme with appropriate substrates. The reactions were initiated by addition of Mg/ATP mix (15 mM MgCl2+100 μM ATP with 30-50 kBq per well of [γ-^32P]-ATP) and mixtures incubated as required at 30° C. Reactions were stopped on ice, followed by filtration through p81 filterplates or GF/C filterplates (Whatman Polyfiltronics, Kent, UK). After washing 3 times with 75 mM aq orthophosphoric acid, plates were dried, scintillant added and incorporated radioactivity measured in a scintillation counter (TopCount, Packard Instruments, Pangbourne, Berks, UK). Compounds for kinase assay were made up as 10 mM stocks in DMSO and diluted into 10% DMSO in assay buffer.

The target in a further test is CDK2/cyclin E (Homo sapiens, UniProt P24941). The test can be described thus: Kinase assay CDK2/cyclin E. Particulars: Ki calculated (Cheng-Prusoff) from experimentally determined IC50 and Km,ATP; read-out: Kinase Inhibition Ki CDK2 - cyclin E. On the procedure: as §1, with “The reactions were initiated by addition of Mg/ATP mix (15 mM MgCl2+100 μM ATP with 30-50 kBq per well of [γ-^32P]-ATP) and mixtures incubated as required at 30° C.” left out

The target of another test is CDK1/cyclin B (Homo sapiens, UniProt P06493). The test can be described thus: Kinase assay CDK1/cyclin B (radioactive phosphate incorporation). Particulars: Ki calculated (Cheng-Prusoff) from experimentally determined IC50 and Km,ATP; read-out: Kinase Inhibition Ki CDK1 - cyclin B. On the procedure: as §1, with “The reactions were initiated by addition of Mg/ATP mix (15 mM MgCl2+100 μM ATP with 30-50 kBq per well of [γ-^32P]-ATP) and mixtures incubated as required at 30° C.” left out

A further test concerns the target CDK9/cyclin T1 (Homo sapiens, UniProt P50750). The test can be described thus: Kinase assay CDK9/cyclin T1. Conditions: Ki calculated (Cheng-Prusoff) from experimentally determined IC50 and Km,ATP; read-out: Kinase Inhibition Ki CDK9 - cyclin T1. How it is done:
as §1

The next test deals with CDK2/cyclin A (Homo sapiens, UniProt P24941). The test can be described thus: Kinase assay CDK2/cyclin A. Particulars: Ki calculated (Cheng-Prusoff) from experimentally determined IC50 and Km,ATP; read-out: Kinase Inhibition Ki CDK2 - cyclin A. How it is done:
as §1, with “The reactions were initiated by addition of Mg/ATP mix (15 mM MgCl2+100 μM ATP with 30-50 kBq per well of [γ-^32P]-ATP) and mixtures incubated as required at 30° C.” left out

For another test, the target named is CDK4/cyclin D1 (Homo sapiens, UniProt P11802). The test can be described thus: Kinase assay CDK4/cyclin D1. Particulars: Ki calculated (Cheng-Prusoff) from experimentally determined IC50 and Km,ATP; read-out: Kinase Inhibition Ki CDK4 - cyclin D1. How it is done:
as §1

Sequence of CDK7/cyclin H (P50613 whole entry, species assumed): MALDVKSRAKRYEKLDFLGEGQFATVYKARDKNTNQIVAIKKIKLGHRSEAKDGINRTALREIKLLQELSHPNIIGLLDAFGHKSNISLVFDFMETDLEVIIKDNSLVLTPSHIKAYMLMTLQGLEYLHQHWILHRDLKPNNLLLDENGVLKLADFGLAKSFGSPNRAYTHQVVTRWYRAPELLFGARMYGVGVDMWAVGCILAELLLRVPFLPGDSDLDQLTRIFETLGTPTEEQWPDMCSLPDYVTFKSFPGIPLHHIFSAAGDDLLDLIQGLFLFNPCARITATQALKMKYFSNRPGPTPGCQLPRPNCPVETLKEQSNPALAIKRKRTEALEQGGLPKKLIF
Sequence of CDK7/cyclin H (P51946 whole entry partner, species assumed): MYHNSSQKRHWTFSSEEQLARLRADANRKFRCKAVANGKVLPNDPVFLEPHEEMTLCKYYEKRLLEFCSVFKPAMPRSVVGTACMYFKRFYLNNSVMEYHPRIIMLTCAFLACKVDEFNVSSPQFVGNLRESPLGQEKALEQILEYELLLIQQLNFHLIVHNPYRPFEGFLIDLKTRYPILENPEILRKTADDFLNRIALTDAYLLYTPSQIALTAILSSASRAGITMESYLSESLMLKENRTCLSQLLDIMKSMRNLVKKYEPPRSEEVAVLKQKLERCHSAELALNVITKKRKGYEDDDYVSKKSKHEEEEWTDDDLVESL
Sequence of CDK9/cyclin T1 (P50750 whole entry, species assumed): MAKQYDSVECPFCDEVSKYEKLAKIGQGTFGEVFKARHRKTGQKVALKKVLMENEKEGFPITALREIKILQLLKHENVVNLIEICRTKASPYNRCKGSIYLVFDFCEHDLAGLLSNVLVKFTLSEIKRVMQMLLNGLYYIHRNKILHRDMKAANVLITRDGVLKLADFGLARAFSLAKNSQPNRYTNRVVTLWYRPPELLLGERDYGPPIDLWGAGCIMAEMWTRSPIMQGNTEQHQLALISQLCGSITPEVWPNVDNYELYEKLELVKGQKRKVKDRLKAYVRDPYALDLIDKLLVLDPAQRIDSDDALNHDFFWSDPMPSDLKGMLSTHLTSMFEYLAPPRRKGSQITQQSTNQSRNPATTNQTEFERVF
Sequence of CDK9/cyclin T1 (O60563 whole entry partner, species assumed): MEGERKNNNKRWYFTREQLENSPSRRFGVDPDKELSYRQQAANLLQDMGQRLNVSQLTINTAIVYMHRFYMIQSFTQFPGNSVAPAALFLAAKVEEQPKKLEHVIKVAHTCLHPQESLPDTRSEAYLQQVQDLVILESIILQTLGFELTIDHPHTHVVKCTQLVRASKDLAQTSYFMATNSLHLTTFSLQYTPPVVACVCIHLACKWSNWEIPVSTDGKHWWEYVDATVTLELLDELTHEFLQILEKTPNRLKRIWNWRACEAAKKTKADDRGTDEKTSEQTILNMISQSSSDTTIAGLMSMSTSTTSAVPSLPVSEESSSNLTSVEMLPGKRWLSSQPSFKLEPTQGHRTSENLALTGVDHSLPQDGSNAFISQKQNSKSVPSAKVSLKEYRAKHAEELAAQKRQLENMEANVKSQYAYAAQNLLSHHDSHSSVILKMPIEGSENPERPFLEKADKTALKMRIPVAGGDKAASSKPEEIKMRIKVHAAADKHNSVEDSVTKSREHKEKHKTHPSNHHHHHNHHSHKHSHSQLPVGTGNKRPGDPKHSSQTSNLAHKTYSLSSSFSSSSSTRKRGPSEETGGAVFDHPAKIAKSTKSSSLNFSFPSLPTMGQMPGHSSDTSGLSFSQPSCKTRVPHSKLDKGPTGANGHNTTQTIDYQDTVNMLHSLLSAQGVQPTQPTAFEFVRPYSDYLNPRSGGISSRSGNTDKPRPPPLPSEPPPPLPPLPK
Sequence of CDK4/cyclin D1 (P11802 whole entry, species assumed): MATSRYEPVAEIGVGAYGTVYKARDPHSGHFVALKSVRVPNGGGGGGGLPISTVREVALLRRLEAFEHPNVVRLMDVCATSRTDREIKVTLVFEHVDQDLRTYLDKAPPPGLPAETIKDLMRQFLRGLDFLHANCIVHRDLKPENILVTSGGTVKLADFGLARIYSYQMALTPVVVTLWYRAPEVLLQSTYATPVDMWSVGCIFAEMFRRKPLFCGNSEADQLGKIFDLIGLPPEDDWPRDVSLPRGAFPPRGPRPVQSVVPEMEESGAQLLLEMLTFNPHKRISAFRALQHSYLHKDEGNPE
Sequence of CDK4/cyclin D1 (P24385 whole entry partner, species assumed): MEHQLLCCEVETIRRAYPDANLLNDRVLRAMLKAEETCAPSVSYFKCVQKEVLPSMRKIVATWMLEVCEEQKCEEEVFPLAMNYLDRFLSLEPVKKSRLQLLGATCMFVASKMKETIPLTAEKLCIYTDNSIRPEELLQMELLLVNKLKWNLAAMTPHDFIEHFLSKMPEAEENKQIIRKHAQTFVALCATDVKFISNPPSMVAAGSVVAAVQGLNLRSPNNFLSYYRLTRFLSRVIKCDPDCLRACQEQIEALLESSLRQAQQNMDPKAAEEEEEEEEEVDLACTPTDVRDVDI
Sequence of CDK1/cyclin B (P06493 whole entry, species assumed): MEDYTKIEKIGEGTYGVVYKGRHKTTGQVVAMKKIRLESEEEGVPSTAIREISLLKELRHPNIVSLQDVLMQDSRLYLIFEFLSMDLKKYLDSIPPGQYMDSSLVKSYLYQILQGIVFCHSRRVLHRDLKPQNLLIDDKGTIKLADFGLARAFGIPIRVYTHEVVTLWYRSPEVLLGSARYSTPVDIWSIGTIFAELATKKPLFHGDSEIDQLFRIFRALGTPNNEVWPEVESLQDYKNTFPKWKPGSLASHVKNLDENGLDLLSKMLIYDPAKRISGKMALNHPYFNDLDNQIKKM
Sequence of CDK1/cyclin B (P14635 whole entry partner, species assumed): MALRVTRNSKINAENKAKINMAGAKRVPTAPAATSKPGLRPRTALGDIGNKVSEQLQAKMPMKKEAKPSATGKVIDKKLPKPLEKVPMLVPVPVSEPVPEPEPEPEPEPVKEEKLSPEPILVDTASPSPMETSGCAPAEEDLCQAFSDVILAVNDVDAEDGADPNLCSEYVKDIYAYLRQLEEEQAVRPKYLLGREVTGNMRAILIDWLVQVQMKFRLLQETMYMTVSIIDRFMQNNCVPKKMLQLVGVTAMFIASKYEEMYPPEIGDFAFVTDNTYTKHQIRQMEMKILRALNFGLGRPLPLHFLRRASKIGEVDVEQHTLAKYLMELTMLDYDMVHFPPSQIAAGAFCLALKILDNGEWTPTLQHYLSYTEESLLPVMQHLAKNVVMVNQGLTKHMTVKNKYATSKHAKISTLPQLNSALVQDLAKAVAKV

Consider `Cc1c(-c2ccnc(Nc3ccc(Cl)cc3)n2)sc(=O)n1CCC(C)C` [Compound 31, 5-[2-(4-Chloro-phenylamino)-pyrimidin-4-yl]-4-methyl-3-(3-methyl-butyl)-3H-thiazol-2-one], for which the Ki on CDK7/cyclin H was 430 nM.
With `Cc1c(-c2ccnc(Nc3ccc(Cl)nc3)n2)sc(=O)n1C` [Compound 32, 5-[2-(6-Chloro-pyridin-3-ylamino)-pyrimidin-4-yl]-3,4-dimethyl-3H-thiazol-2-one], the Ki at CDK2/cyclin E is 68 nM; on CDK1/cyclin B it was 500 nM; on CDK9/cyclin T1, 6.5 nM.
Regarding `CC(=O)Nc1nccc(-c2sc(=O)n(C)c2C)n1` [Compound 85, N-[4-(3,4-Dimethyl-2-oxo-2,3-dihydro-thiazol-5-yl)-pyrimidin-2-yl]-acetamide], at CDK9/cyclin T1, the Ki is 290 nM.
On to `Cc1c(-c2ccnc(Nc3ccc(Cl)c(CO)c3)n2)sc(=O)n1C` [Compound 18, 5-[2-(4-Chloro-3-hydroxymethyl-phenylamino)-pyrimidin-4-yl]-3,4-dimethyl-3H-thiazol-2-one], for which the Ki on CDK7/cyclin H was 28 nM; on CDK2/cyclin A, 59 nM; at CDK2/cyclin E, 28 nM; at CDK1/cyclin B, 22 nM; on CDK4/cyclin D1, 170 nM; on CDK9/cyclin T1 it was 1.2 nM.
Turning to `Cc1c(-c2ccnc(Nc3cc([N+](=O)[O-])ccc3N(C)C)n2)sc(=O)n1C` [Compound 37, 5-[2-(2-Dimethylamino-5-nitro-phenylamino)-pyrimidin-4-yl]-3,4-dimethyl-3H-thiazol-2-one], the Ki at CDK2/cyclin E is 8600 nM; on CDK1/cyclin B it was 9900 nM.
Take `Cc1c(-c2ccnc(Nc3cccc(O)c3)n2)sc(=O)n1C` [Compound 7, 5-[2-(3-Hydroxy-phenylamino)-pyrimidin-4-yl]-3,4-dimethyl-3H-thiazol-2-one]: the Ki is 620 nM at CDK7/cyclin H; 25 nM at CDK2/cyclin A; 43 nM on CDK2/cyclin E; 130 nM on CDK1/cyclin B; 540 nM on CDK4/cyclin D1.
For `Cc1c(-c2ccnc(Nc3ccc(N4CCOCC4)cc3)n2)sc(=O)n1C` [Compound 9, 3,4-Dimethyl-5-[2-(4-morpholin-4-yl-phenylamino)-pyrimidin-4-yl]-3H-thiazol-2-one], in that order: 1300 nM, 170 nM, 590 nM, 5200 nM and 670 nM.
Turning to `Cc1c(-c2ccnc(NCc3cccnc3)n2)sc(=O)n1C` [Compound 83, 3,4-Dimethyl-5-{2-[(pyridin-3-ylmethyl)-amino]-pyrimidin-4-yl}-3H-thiazol-2-one], the Ki on CDK2/cyclin E was 1600 nM; at CDK4/cyclin D1, 1300 nM; on CDK9/cyclin T1, 320 nM.
As for `Cc1ccc([N+](=O)[O-])cc1Nc1nccc(-c2sc(=O)n(C)c2C)n1` [Compound 20, 3,4-Dimethyl-5-[2-(2-methyl-5-nitro-phenylamino)-pyrimidin-4-yl]-3H-thiazol-2-one], the Ki on CDK7/cyclin H is 910 nM; on CDK2/cyclin E, 6500 nM; on CDK9/cyclin T1, 85 nM.
On to `Cc1c(-c2ccnc(Nc3ccc(F)c([N+](=O)[O-])c3)n2)sc(=O)n1C` [Compound 10, 5-[2-(4-Fluoro-3-nitro-phenylamino)-pyrimidin-4-yl]-3,4-dimethyl-3H-thiazol-2-one], for which the Ki at CDK7/cyclin H was 520 nM; at CDK2/cyclin A it was 21 nM; at CDK2/cyclin E, 130 nM; on CDK1/cyclin B it was 280 nM; on CDK4/cyclin D1, 990 nM.
As to `Cc1c(-c2ccnc(N)n2)sc(=O)n1C` [Compound 84, 5-(2-Amino-pyrimidin-4-yl)-3,4-dimethyl-3H-thiazol-2-one], at CDK9/cyclin T1, the Ki is 130 nM.
For `CCn1c(C)c(-c2ccnc(Nc3cccc(OC)c3)n2)sc1=O` [Compound 50, 3-Ethyl-5-[2-(3-methoxy-phenylamino)-pyrimidin-4-yl]-4-methyl-3H-thiazol-2-one], the Ki at CDK7/cyclin H was 140 nM; on CDK9/cyclin T1, 80 nM.
As for `CCn1c(C)c(-c2ccnc(Nc3ccc(Cl)c(C(=O)OC)c3)n2)sc1=O` [Compound 25, 2-Chloro-5-[4-(3-ethyl-4-methyl-2-oxo-2,3-dihydro-thiazol-5-yl)-pyrimidin-2-ylamino]-benzoic acid methyl ester], the Ki at CDK2/cyclin A is 23000 nM; on CDK2/cyclin E, 2700 nM; on CDK9/cyclin T1 it was 4400 nM.
Take `Cc1c(-c2ccnc(Nc3cccc(C(F)(F)F)c3)n2)sc(=O)n1C` [Compound 19, 3,4-Dimethyl-5-[2-(3-trifluoromethyl-phenylamino)-pyrimidin-4-yl]-3H-thiazol-2-one]: the results for the Ki at CDK7/cyclin H, at CDK2/cyclin E and at CDK9/cyclin T1 were 5100 nM, 1700 nM and 1800 nM, respectively.
As to `Cc1c(-c2ccnc(Nc3ccc(Cl)cc3)n2)sc(=O)n1C` [Compound 4, 5-[2-(4-Chloro-phenylamino)-pyrimidin-4-yl]-3,4-dimethyl-3H-thiazol-2-one], the Ki at CDK7/cyclin H was 4100 nM; at CDK2/cyclin A it was 200 nM; on CDK2/cyclin E, 130 nM; at CDK1/cyclin B it was 460 nM; on CDK4/cyclin D1 it was 1600 nM.
For `Cc1c(-c2ccnc(Nc3ccc(Cl)nc3)n2)sc(=O)n1CCC(C)C` [Compound 34, 5-[2-(6-Chloro-pyridin-3-ylamino)-pyrimidin-4-yl]-4-methyl-3-(3-methyl-butyl)-3H-thiazol-2-one], the Ki at CDK7/cyclin H is 230 nM; at CDK2/cyclin A it was 600 nM; on CDK2/cyclin E, 1100 nM; on CDK1/cyclin B it was 3500 nM; at CDK9/cyclin T1, 1800 nM.
Consider `CCn1c(C)c(-c2ccnc(Nc3ccc(Cl)c(C(=O)O)c3)n2)sc1=O` [Compound 24, 2-Chloro-5-[4-(3-ethyl-4-methyl-2-oxo-2,3-dihydro-thiazol-5-yl)-pyrimidin-2-ylamino]-benzoic acid], for which the Ki on CDK2/cyclin A is 1100 nM; at CDK2/cyclin E, 1900 nM; on CDK1/cyclin B it was 6300 nM; on CDK4/cyclin D1 it was 24000 nM; on CDK9/cyclin T1 it was 370 nM.
For `Cc1ccc(Nc2nccc(-c3sc(=O)n(C)c3C)n2)cc1I` [Compound 14, 5-[2-(3-Iodo-4-methyl-phenylamino)-pyrimidin-4-yl]-3,4-dimethyl-3H-thiazol-2-one], in that order: 840 nM, 350 nM, 700 nM, 2100 nM and 35 nM.
Consider `COc1ccc(Nc2nccc(-c3sc(=O)n(C)c3C)n2)cc1` [Compound 6, 5-[2-(4-Methoxy-phenylamino)-pyrimidin-4-yl]-3,4-dimethyl-3H-thiazol-2-one], for which the inhibition constant Ki is 920 nM on CDK7/cyclin H; 190 nM on CDK2/cyclin A; 380 nM at CDK2/cyclin E; 260 nM on CDK1/cyclin B; 570 nM on CDK4/cyclin D1.
For `CCn1c(C)c(-c2ccnc(Nc3ccc(N(C)C)c([N+](=O)[O-])c3)n2)sc1=O` [Compound 29, 5-[2-(4-Dimethylamino-3-nitro-phenylamino)-pyrimidin-4-yl]-3-ethyl-4-methyl-3H-thiazol-2-one], the inhibition constant (Ki) on CDK7/cyclin H is 43 nM; on CDK2/cyclin E it was 33 nM; at CDK4/cyclin D1, 170 nM; at CDK9/cyclin T1, 7 nM.
For `Cc1c(-c2ccnc(Nc3ccc(O)cc3)n2)sc(=O)n1C` [Compound 3, 5-[2-(4-Hydroxy-phenylamino)-pyrimidin-4-yl]-3,4-dimethyl-3H-thiazol-2-one], at CDK9/cyclin T1, the Ki was 0.7 nM.
As for `Cc1cc(Nc2nccc(-c3sc(=O)n(C)c3C)n2)ccc1F` [Compound 12, 5-[2-(4-Fluoro-3-methyl-phenylamino)-pyrimidin-4-yl]-3,4-dimethyl-3H-thiazol-2-one], the Ki at CDK2/cyclin E was 66 nM; at CDK1/cyclin B, 380 nM; on CDK9/cyclin T1, 24 nM.
